# Results taken from patent US10597383B2, “Bicyclic proline compounds” (Genentech, Inc., priority 2016, dated 2020).
# pIC50: −log10 of the molar value.
# Molecular target: human TRPA1 (Homo sapiens (Human), UniProt O75762)
# Test: hTRPA1 CHO Ca2+ AUC EVO (IC50); FLIPR Tetra block of cinnamaldehyde induced calcium influx
# Format: cell-based
# Conditions: Table 3; CHO cells expressing TRPA1; 75 uM cinnamaldehyde (~EC80) as agonist
# Procedure: IC50 ([…]) of compounds on the human and rat TRPA1 channels were determined using a FLIPR Tetra instrument. CHO cells expressing TRPA1 were plated into 384-well plates, incubated overnight at 37° C., and loaded with BD calcium indicator dye for 1 hr at 37° C. followed by 15 minutes. at room temperature. The assay buffer was Hank's Balanced Salt Solution (HBSS) containing 20 mM HEPES (pH readjusted to 7.4) along with 0.02% BSA.
# Following dye load and plate cool down, compounds were added to the cells using FLIPR Tetra. Plates were then incubated with compounds for 20 minutes at room temperature prior to adding agonist. Following this incubation, ˜EC80 concentration of cinnamaldehyde (75 uM for human TRPA1 and 45 uM for rat TRPA1) was added to active the channels and block of cinnamaldehyde induced calcium influx was measured.
# IC50 values were fit with a standard Hill function, keeping the Hill coefficient (n) fixed to 1.5. Fixing the Hill coefficient will generally reduce variability of the IC50 determination. The IC50 values were individually examined to make sure the MIN and MAX points were set correctly prior to validation of the results.
# Sequence of human TRPA1 (O75762 whole entry): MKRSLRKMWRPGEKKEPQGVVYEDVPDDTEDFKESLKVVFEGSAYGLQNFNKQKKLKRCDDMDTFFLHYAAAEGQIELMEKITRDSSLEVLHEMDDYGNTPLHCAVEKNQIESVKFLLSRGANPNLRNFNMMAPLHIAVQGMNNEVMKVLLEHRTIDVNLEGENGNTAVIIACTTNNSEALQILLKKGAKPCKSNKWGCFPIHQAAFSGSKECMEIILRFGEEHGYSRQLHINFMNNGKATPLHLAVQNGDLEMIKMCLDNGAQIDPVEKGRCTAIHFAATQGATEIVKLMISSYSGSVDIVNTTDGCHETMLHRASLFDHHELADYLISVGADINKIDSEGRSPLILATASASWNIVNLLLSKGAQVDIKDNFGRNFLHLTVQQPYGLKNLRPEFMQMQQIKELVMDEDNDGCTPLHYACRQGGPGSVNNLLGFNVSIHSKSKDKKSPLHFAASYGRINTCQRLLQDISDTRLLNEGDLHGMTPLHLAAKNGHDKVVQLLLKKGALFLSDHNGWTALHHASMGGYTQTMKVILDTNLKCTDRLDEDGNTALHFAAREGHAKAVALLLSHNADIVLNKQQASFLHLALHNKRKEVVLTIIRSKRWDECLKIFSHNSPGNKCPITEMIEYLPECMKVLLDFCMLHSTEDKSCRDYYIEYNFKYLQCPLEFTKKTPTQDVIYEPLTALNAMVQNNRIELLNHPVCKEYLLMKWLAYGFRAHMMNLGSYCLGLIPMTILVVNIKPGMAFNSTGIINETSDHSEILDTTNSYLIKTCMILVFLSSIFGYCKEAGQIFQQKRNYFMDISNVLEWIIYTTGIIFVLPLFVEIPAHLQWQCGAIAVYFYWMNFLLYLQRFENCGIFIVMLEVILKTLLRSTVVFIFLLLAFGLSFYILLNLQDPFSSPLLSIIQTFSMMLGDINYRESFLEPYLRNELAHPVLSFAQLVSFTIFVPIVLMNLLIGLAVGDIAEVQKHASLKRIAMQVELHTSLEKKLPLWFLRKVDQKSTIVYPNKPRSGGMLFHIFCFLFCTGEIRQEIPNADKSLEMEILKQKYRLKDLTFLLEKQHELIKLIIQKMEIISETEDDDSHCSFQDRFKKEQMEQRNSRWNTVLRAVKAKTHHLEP
row,pIC50,SMILES
1,7.80,"N#Cc1cnc(-c2cnc(C(F)(F)F)nc2)cc1CNC(=O)[C@@H]1C2CC(C2)N1S(=O)(=O)c1ccc(F)cc1 [compound 8, (2S)-N-[[5-cyano-2-[2-(trifluoromethyl)pyrimidin-5-yl]-4-pyridyl]methyl]-3-(4-fluorophenyl)sulfonyl-3-azabicyclo[2.1.1]hexane-2-carboxamide]"
2,7.77,"N#Cc1ccc(-c2cnc(C(F)(F)F)nc2)cc1CNC(=O)[C@@H]1C2CC(C2)N1S(=O)(=O)c1ccc(F)cc1 [compound 9, (2S)-N-[[2-cyano-5-[2-(trifluoromethyl)pyrimidin-5-yl]phenyl]methyl]-3-(4-fluorophenyl)sulfonyl-3-azabicyclo[2.1.1]hexane-2-carboxamide]"
3,8.67,"O=C(NCc1cc(-c2cnc(C(F)(F)F)nc2)nc(C2CC2)n1)[C@@H]1C2CC(C2)N1S(=O)(=O)c1ccc(F)cc1 [compound 10, (2S)-N-[[2-cyclopropyl-6-[2-(trifluoromethyl)pyrimidin-5-yl]pyrimidin-4-yl]methyl]-3-(4-fluorophenyl)sulfonyl-3-azabicyclo[2.1.1]hexane-2-carboxamide]"
4,7.04,"CC12CC(C1)[C@@H](C(=O)NCc1cc(-c3cnc(C(F)(F)F)nc3)c(F)cn1)N2S(=O)(=O)c1ccc(F)cc1 [compound 12, (2S)-3-(4-fluorophenyl)sulfonyl-N-[[5-fluoro-4-[2-(trifluoromethyl)pyrimidin-5-yl]-2-pyridyl]methyl]-4-methyl-3-azabicyclo[2.1.1]hexane-2-carboxamide]"
5,8.81,"O=C(NCc1cc(-c2cnc(C(F)(F)F)nc2)ncc1Cl)[C@@H]1C2CC(C2)N1S(=O)(=O)c1ccc(F)c(F)c1 [compound 13, (2S)-N-[[5-chloro-2-[2-(trifluoromethyl)pyrimidin-5-yl]-4-pyridyl]methyl]-3-(3,4-difluorophenyl)sulfonyl-3-azabicyclo[2.1.1]hexane-2-carboxamide]"
6,8.42,"O=C(NCc1cc(-c2cnc(C(F)(F)F)nc2)ncc1Br)[C@@H]1C2CC(C2)N1S(=O)(=O)c1ccc(F)cc1 [compound 14, (2S)-N-[[5-bromo-2-[2-(trifluoromethyl)pyrimidin-5-yl]-4-pyridyl]methyl]-3-(4-fluorophenyl)sulfonyl-3-azabicyclo[2.1.1]hexane-2-carboxamide]"
7,8.56,"O=C(NCc1cc(-c2cnc(C(F)(F)F)nc2)ncc1OC(F)(F)F)[C@@H]1C2CC(C2)N1S(=O)(=O)c1ccc(F)cc1 [compound 15, (2S)-3-(4-fluorophenyl)sulfonyl-N-[[5-(trifluoromethoxy)-2-[2-(trifluoromethyl)pyrimidin-5-yl]-4-pyridyl]methyl]-3-azabicyclo[2.1.1]hexane-2-carboxamide]"
8,8.00,"O=C(NCc1cc(-c2cnc(C(F)(F)F)nc2)ccc1F)[C@@H]1C2CC(C2)N1S(=O)(=O)c1ccc(F)cc1 [compound 16, (2S)-3-(4-fluorophenyl)sulfonyl-N-[[2-fluoro-5-[2-(trifluoromethyl)pyrimidin-5-yl]phenyl]methyl]-3-azabicyclo[2.1.1]hexane-2-carboxamide]"
9,8.22,"O=C(NCc1cc(-c2ccc(C(F)(F)F)nc2)ccc1F)[C@@H]1C2CC(C2)N1S(=O)(=O)c1ccc(F)cc1 [compound 17, (2S)-3-(4-fluorophenyl)sulfonyl-N-[[2-fluoro-5-[6-(trifluoromethyl)-3-pyridyl]phenyl]methyl]-3-azabicyclo[2.1.1]hexane-2-carboxamide]"
10,8.05,"O=C(NCc1cc(F)cc(-c2cnc(C(F)(F)F)nc2)c1)[C@@H]1C2CC(C2)N1S(=O)(=O)c1ccc(F)cc1 [compound 19, (2S)-3-(4-fluorophenyl)sulfonyl-N-[[3-fluoro-5-[2-(trifluoromethyl)pyrimidin-5-yl]phenyl]methyl]-3-azabicyclo[2.1.1]hexane-2-carboxamide]"
11,8.21,"O=C(NCc1cc(F)cc(-c2ccc(C(F)(F)F)nc2)c1)[C@@H]1C2CC(C2)N1S(=O)(=O)c1ccc(F)cc1 [compound 20, (2S)-3-(4-fluorophenyl)sulfonyl-N-[[3-fluoro-5-[6-(trifluoromethyl)-3-pyridyl]phenyl]methyl]-3-azabicyclo[2.1.1]hexane-2-carboxamide]"
12,7.56,"Cn1nc(C(F)(F)F)cc1-c1cc(F)cc(CNC(=O)[C@@H]2C3CC(C3)N2S(=O)(=O)c2ccc(F)cc2)c1 [compound 21, (2S)-N-[[3-fluoro-5-[2-methyl-5-(trifluoromethyl)pyrazol-3-yl]phenyl]methyl]-3-(4-fluorophenyl)sulfonyl-3-azabicyclo[2.1.1]hexane-2-carboxamide]"
13,8.32,"O=C(NCc1cn(-c2cnc(C(F)(F)F)nc2)nc1C(F)(F)F)[C@@H]1C2CC(C2)N1S(=O)(=O)c1ccc(F)cc1 [compound 29, (2S)-3-(4-fluorophenyl)sulfonyl-N-[[3-(trifluoromethyl)-1-[2-(trifluoromethyl)pyrimidin-5-yl]pyrazol-4-yl]methyl]-3-azabicyclo[2.1.1]hexane-2-carboxamide]"
14,8.93,"O=C(NCc1cc(-c2cnc(C(F)(F)F)nc2)nc(C(F)(F)F)n1)[C@@H]1C2CC(C2)N1S(=O)(=O)c1ccc(F)cc1 [compound 30, (2S)-3-(4-fluorophenyl)sulfonyl-N-[[2-(trifluoromethyl)-6-[2-(trifluoromethyl)pyrimidin-5-yl]pyrimidin-4-yl]methyl]-3-azabicyclo[2.1.1]hexane-2-carboxamide]"
15,8.73,"O=C(NCc1cc(-c2cnc(C(F)(F)F)nc2)ncc1C(F)(F)F)[C@@H]1C2CC(C2)N1S(=O)(=O)c1cc2cc(F)ccc2o1 [compound 31, (2S)-3-(5-fluorobenzofuran-2-yl)sulfonyl-N-[[5-(trifluoromethyl)-2-[2-(trifluoromethyl)pyrimidin-5-yl]-4-pyridyl]methyl]-3-azabicyclo[2.1.1]hexane-2-carboxamide]"
16,8.14,"O=C(NCc1cc(-c2cnc(C(F)(F)F)nc2)cc(C2CC2)n1)[C@@H]1C2CC(C2)N1S(=O)(=O)c1ccc(F)cc1 [compound 32, (2S)-N-[[6-cyclopropyl-4-[2-(trifluoromethyl)pyrimidin-5-yl]-2-pyridyl]methyl]-3-(4-fluorophenyl)sulfonyl-3-azabicyclo[2.1.1]hexane-2-carboxamide]"
17,8.45,"O=C(NCc1cc(-c2cnc(C(F)(F)F)nc2)nc(C2CC2)c1)[C@@H]1C2CC(C2)N1S(=O)(=O)c1ccc(F)cc1 [compound 33, (2S)-N-[[2-cyclopropyl-6-[2-(trifluoromethyl)pyrimidin-5-yl]-4-pyridyl]methyl]-3-(4-fluorophenyl)sulfonyl-3-azabicyclo[2.1.1]hexane-2-carboxamide]"
18,7.72,"COc1nn(-c2cnc(C(F)(F)F)nc2)cc1CNC(=O)[C@@H]1C2CC(C2)N1S(=O)(=O)c1ccc(F)cc1 [compound 34, (2S)-3-(4-fluorophenyl)sulfonyl-N-[[3-methoxy-1-[2-(trifluoromethyl)pyrimidin-5-yl]pyrazol-4-yl]methyl]-3-azabicyclo[2.1.1]hexane-2-carboxamide]"
19,8.37,"O=C(NCc1cc(-c2cnc(C(F)(F)F)nc2)nc(OCC(F)(F)F)n1)[C@@H]1C2CC(C2)N1S(=O)(=O)c1ccc(F)cc1 [compound 35, (2S)-3-(4-fluorophenyl)sulfonyl-N-[[2-(2,2,2-trifluoroethoxy)-6-[2-(trifluoromethyl)pyrimidin-5-yl]pyrimidin-4-yl]methyl]-3-azabicyclo[2.1.1]hexane-2-carboxamide]"

row,SMILES,pIC50
1,"Cn1nc(C(F)(F)F)cc1-c1ccc(F)c(CNC(=O)[C@@H]2C3CC(C3)N2S(=O)(=O)c2ccc(F)cc2)c1 [compound 18, (2S)-N-[[2-fluoro-5-[2-methyl-5-(trifluoromethyl)pyrazol-3-yl]phenyl]methyl]-3-(4-fluorophenyl)sulfonyl-3-azabicyclo[2.1.1]hexane-2-carboxamide]",7.80
